Laboratory results as given in ChEMBL document CHEMBL5465560, “Selectivity Literature for EUbOPEN Chemogenomic Library” (2024).

Tests used:
[1] = biological target: Mitogen-activated protein kinase 6 (Homo sapiens) (UniProt Q16659); experiment: Selectivity interaction (KinomeScan (DiscoverX)) EUB0000229b MAPK6; details: at 10 µM
[2] = biological target: T1, Uncharacterized serine/threonine-protein kinase SBK3 (Homo sapiens) (UniProt P0C264); experiment: Selectivity interaction (KinomeScan (DiscoverX)) EUB0000229b SBK3; details: at 10 µM
T1 sequence (whole entry): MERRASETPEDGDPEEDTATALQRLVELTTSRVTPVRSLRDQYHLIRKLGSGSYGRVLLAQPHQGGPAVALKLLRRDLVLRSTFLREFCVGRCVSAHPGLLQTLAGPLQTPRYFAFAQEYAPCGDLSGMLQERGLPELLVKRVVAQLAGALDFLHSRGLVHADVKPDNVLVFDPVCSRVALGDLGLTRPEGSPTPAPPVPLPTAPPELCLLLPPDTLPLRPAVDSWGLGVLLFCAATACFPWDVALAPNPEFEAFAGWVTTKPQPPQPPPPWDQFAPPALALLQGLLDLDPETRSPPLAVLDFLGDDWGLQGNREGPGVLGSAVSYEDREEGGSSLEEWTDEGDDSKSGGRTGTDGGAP

[3] = biological target: T2, Cyclin-dependent kinase 11A (Homo sapiens) (UniProt Q9UQ88); experiment: Selectivity interaction (KinomeScan (DiscoverX)) EUB0000595a CDK11A; details: at 10 µM
T2 sequence (whole entry): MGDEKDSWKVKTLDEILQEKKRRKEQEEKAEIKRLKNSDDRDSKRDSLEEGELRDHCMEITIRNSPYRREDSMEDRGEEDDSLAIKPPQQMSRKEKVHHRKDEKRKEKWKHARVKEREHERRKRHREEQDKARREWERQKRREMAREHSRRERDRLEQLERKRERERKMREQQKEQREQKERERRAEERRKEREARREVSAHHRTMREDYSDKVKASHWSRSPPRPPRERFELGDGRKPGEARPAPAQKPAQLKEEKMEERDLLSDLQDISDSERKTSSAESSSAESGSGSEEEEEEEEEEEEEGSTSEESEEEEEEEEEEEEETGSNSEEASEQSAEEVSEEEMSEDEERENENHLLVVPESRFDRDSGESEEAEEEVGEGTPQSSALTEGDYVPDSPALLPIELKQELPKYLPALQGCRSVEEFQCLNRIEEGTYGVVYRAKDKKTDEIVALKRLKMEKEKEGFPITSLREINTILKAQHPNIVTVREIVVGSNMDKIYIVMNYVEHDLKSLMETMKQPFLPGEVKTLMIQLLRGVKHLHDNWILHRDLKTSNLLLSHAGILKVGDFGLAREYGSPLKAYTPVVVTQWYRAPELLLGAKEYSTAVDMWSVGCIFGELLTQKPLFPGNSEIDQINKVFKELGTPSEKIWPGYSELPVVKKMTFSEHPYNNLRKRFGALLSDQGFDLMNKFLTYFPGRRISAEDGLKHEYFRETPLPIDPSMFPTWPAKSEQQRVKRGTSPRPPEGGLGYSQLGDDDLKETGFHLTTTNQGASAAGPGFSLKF

[4] = biological target: T3, Myosin light chain kinase family member 4 (Homo sapiens) (UniProt Q86YV6); details: at 10 µM
T3 sequence (whole entry): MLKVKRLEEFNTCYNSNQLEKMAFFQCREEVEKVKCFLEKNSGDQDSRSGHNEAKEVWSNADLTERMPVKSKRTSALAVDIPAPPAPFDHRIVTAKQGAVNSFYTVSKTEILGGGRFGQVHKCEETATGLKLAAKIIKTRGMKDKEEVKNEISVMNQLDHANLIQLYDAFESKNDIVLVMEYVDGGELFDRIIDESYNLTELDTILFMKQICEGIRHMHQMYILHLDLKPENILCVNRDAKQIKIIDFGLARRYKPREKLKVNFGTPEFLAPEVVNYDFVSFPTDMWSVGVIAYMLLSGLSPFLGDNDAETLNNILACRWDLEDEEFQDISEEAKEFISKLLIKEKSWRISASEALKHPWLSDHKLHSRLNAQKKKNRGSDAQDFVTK

[5] = biological target: T4, Testis-specific serine/threonine-protein kinase 1 (Homo sapiens) (UniProt Q9BXA7); experiment: Selectivity interaction (KinomeScan (DiscoverX)) EUB0000618a TSSK1A; details: at 10 µM
T4 sequence (whole entry): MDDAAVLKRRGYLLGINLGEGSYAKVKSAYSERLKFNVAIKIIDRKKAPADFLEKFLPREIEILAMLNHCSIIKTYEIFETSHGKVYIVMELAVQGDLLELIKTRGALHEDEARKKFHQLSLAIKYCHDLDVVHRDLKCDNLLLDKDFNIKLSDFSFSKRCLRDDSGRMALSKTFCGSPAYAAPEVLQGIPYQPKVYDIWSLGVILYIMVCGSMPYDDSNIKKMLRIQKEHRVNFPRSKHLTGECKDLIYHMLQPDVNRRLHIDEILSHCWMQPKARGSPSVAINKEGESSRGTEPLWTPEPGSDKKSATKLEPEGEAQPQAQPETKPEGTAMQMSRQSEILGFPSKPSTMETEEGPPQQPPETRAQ

[6] = biological target: T5, Serine/threonine-protein kinase MAK (Homo sapiens) (UniProt P20794); experiment: Selectivity interaction (KinomeScan (DiscoverX)) EUB0001619a MAK; details: at 1 µM
T5 sequence (whole entry): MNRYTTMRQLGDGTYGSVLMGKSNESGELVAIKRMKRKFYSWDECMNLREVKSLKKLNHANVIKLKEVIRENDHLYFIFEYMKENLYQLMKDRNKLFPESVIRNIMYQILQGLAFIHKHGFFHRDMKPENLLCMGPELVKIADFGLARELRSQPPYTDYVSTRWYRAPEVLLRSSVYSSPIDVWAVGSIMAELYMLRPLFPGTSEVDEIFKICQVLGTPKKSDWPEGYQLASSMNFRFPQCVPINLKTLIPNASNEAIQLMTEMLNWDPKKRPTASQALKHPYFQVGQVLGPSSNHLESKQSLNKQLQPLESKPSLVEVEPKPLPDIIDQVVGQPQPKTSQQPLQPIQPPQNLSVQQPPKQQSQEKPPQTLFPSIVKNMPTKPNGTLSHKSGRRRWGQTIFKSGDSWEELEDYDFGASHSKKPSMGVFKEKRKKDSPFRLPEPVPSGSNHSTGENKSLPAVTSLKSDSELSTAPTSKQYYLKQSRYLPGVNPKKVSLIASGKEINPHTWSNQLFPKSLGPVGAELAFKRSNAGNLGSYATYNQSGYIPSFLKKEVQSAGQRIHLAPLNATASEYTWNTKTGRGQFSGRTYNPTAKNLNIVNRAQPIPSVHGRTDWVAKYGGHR

[7] = biological target: Serine/threonine-protein kinase MARK2 (Homo sapiens) (UniProt Q7KZI7); experiment: Selectivity interaction (SelectScreen profiling (Invitrogen)) EUB0000607a MARK2; details: at 2 µM
[8] = biological target: Cyclin-C/Cyclin-dependent kinase 19 (Homo sapiens) (UniProt Q9BWU1+P24863); experiment: Selectivity interaction (ProQinase) EUB0000171b CDK19; type: protein-complex assay

Mitogen-activated protein kinase 6 (Homo sapiens), sequence (Q16659 whole entry): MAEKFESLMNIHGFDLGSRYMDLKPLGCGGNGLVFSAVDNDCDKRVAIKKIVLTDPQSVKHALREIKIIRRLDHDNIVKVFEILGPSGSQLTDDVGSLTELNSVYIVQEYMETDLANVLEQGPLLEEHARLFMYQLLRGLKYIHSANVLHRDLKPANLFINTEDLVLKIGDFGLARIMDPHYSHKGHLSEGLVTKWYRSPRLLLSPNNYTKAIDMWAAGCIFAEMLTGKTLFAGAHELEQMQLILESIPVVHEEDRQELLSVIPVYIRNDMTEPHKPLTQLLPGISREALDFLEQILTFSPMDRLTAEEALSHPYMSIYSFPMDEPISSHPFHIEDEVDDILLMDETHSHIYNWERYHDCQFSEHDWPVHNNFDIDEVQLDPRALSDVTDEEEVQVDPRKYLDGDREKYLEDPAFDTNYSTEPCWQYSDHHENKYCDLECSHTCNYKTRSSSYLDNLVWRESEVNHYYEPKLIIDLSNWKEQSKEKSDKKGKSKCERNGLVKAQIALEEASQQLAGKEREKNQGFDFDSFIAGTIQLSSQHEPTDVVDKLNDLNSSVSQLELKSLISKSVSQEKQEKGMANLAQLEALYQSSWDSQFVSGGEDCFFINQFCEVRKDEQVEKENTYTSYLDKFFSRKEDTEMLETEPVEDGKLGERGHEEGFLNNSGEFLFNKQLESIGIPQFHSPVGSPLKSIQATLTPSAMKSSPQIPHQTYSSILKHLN
Serine/threonine-protein kinase MARK2 (Homo sapiens), sequence (Q7KZI7 whole entry): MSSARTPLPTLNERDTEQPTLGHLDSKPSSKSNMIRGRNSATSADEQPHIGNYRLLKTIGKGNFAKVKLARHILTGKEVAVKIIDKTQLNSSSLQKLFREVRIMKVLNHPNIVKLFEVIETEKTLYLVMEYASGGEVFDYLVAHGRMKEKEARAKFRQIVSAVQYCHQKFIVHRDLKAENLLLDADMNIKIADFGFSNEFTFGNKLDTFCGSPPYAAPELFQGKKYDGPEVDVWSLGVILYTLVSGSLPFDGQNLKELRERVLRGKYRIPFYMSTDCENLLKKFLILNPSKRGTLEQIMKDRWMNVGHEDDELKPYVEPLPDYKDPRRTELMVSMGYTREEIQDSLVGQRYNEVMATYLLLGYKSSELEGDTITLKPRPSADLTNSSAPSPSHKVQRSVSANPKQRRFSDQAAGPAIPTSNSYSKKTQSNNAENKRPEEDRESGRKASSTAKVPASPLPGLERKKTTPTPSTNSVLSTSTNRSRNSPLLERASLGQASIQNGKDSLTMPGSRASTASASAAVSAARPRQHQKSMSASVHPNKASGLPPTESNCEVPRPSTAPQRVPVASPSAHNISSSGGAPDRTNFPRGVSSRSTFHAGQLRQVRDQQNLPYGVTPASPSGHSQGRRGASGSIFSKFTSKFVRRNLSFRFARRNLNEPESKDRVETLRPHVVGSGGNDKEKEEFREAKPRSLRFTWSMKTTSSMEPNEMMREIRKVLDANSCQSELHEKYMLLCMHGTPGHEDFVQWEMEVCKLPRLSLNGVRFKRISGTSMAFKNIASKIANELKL

Question: With `COc1cc(N(C)c2ccnc3ccc(C(F)(F)F)cc23)cc(OC)c1OC` as the compound, how does the % binding [1] read?
Answer: Its % binding is 100%.

Question: What about the % binding [2] of the same compound?
Answer: Its % binding is 100%.

Question: What does the source list for `COCC(=O)NC/C=C/c1ccc2ncnc(Nc3ccc(Oc4ccc(C)nc4)c(C)c3)c2c1` [CP-724714]?
Answer: % of control [3]: 0.5%; % of control [4]: 100%

Question: For `O[C@H]1CC[C@H](Nc2ncc3nc(Nc4c(F)cc(F)cc4F)n([C@H]4CCOC4)c3n2)CC1`, which % of control [5] is on record?
Answer: The % of control was 100%.

Question: Which % of control [6] does the source give for `N#Cc1cccc(-c2c[nH]c3ncnc(N4CCOCC4)c23)c1` here?
Answer: Its % of control is 94%.

Question: How did the % of inhibition [7] turn out when `CNC(=O)Nc1ccc(-c2nc(N3CC4CCC(C3)O4)c3cnn(C4CCC5(CC4)OCCO5)c3n2)cc1` was run?
Answer: Its % of inhibition is 12%.

Question: For `C=CC(=O)Nc1cccc(C(=O)Nc2ccc(Nc3cc(-c4[nH]c(SC)nc4C)ccn3)cc2)c1`, which % of control ([8]; at 1 µM) is on record?
Answer: The % of control was 72%.

Question: What about the % of control ([8]; at 5 µM) of the same compound?
Answer: Its % of control is 65%.
